Tests used:
[1] = test system: bortezomib chemotherapy-induced peripheral neuropathy; assay: Bortezomib chemotherapy-induced peripheral neuropathy in rats (Example 6); assay type: in vivo, SD (Sprague Dawley) rats; conditions: compared with the model group
Protocol: (The modeling and administration time are shown in FIG. 11. The animal grouping, the administration method, and the doses are detailed in Table 14). […] (2) Thermal pain threshold: measurements were performed on days 0, 7, 14, and 21. Method: IITC Life Science Electronic Von Frey Anesthesio meter was used and the intensity of the light source was adjusted to obtain a thermal pain threshold baseline of about 3-6 s. […] The rats were placed in a plastic compartment on a glass plate, to make the planta centers of the rats be exposed to the light source. […] (3) Mechanical Stimulus Pain Threshold: Measurements were Performed on Days −1, 6, 13, and 20. Method: the rats were placed in a plastic compartment on a wire mesh, left to stand still for 15 min, stimulated using a stimulation probe with a diameter of 0.4 mm of the IITC Life Science Electronic Von Frey Anesthesio meter at the planta centers of the rats by gradually increasing the force until reflexive withdrawal of the rats.

[2] = test system: MDA-MB-231, JIMT-1, SK-OV-3, HT29, A549, A375; assay: In vitro proliferation of 6 tumor cell strains, summary statements (Example 5); assay type: cell-based, Human; conditions: NBP alone; 6 cell strains
Protocol: This experiment includes a monotherapy group of ab-PTX, a combined therapy group (ab-PTX/NBP), and an NBP group. Different drug concentration gradients were set for each group.
ab-PTX/NBP group: the final concentration of NBP was 30 μM, and the concentration gradient of ab-PTX was the same as that of the monotherapy group.
Monotherapy group of NBP: NBP was 2× serially diluted from an initial concentration of 480 μM to 8 concentrations: 480, 240, 120, 60, 30, 15, 7.5, and 3.75 μM, respectively.
The action time of the drug was 72 h.
24 h after adherence, 100 μL of the culture solution containing different concentration gradients of ab-PTX was added to each well of the monotherapy group of ab-PTX; 100 μL of the culture solution containing different concentration gradients of ab-PTX and 30 μM NBP was added to each well of the combined therapy group of ab-PTX/NBP; 100 μL of the culture solution containing different concentration gradients of NBP was added to each well of the monotherapy group of NBP; 3 repeated wells were provided for each concentration of each drug, and the blank wells (only culture medium was present) and the normal wells (drug concentration was 0) were provided.
The experiment was repeated three times, and the IC50 value was expressed as the mean±SD of the results of the 3 experiments.

CCCCC1OC(=O)c2ccccc21 (stereo not shown) [NBP, 3-n-butylphthalide]
mechanical stimulus pain threshold (decrease in model rats) ([1]; day 20, NBP 10 and 30 mg/kg bid): significantly reversed | body weights of the rats ([1]; day 21, NBP 3, 10 and 30 mg/kg bid gavage): not obviously changed | thermal pain threshold (decrease in model rats) ([1]; day 21, NBP 3, 10 and 30 mg/kg bid): significantly reversed | inhibitory effect on in vitro proliferation [2]: did not have obvious inhibitory effect

— patent US20230144023A1, “USE OF BUTYLPHTHALIDE AND DERIVATIVE THEREOF” (CSPC NBP PHARMACEUTICAL CO., LTD, priority 2020, published 2023)
